From publication PMC6130710 (Pharmaceutical Biology, 2017)
≈ marks a conversion by molar mass, not a printed value. Like-named read-outs stand apart in the source and are kept apart here.

What was measured:
[1] = target: rat intestinal α-glucosidase (maltase); assay: rat intestinal α-glucosidase (maltase) inhibition assay; type: biochemical; settings: rat intestine; for IC50: compounds, Table 2
Experimental: (§1) 1 D and 2 D NMR spectra were recorded on a Bruker 400 AVANCE spectrometer, and the chemical shifts were reported in parts per million (ppm) using tetramethylsilane (TMS) as the internal standard. Melting points were determined on a Fisher-Johns Melting Point apparatus. Adsorbents such as silica gel 60 (Merck) were used for column and radial (chromatotron model 7924 T, Harrison Research) chromatographies. Merck silica gel 60F254 plates were used for TLC. HRESIMS spectra were obtained using a Bruker MICROTOF model mass spectrometer. UV-visible absorption spectra were recorded using a UV-2550 (SHIMADZU) UV-Vis spectrometer (Shimadzu, Kyoto, Japan). α-Glucosidase (EC 3.2.1.20) from Saccharomyces cerevisiae and 4-nitrophenyl-α-D-glucopyranoside (p-NPG) were obtained from Sigma-Aldrich (St. Louis, MO). Acarbose was obtained from Bayer Vitol Leverkusen, Germany. Rat intestinal acetone powder was supplied by Sigma Aldrich.
(§2) Moreover, previous procedure (Damsud et al. [2013]) was also applied to determine inhibitory activity of isolated compounds against intestinal α-glucosidases (maltase and sucrase). Briefly, 10 μL of the test sample and substrate solution (maltose: 10 mM, 20 μL; sucrose: 100 mM, 20 μL, respectively) in 0.1 M phosphate buffer (pH 6.9) were incubated at 37 °C (20 min for maltase and 60 min for sucrase). The mixture was discontinued in boiling water for 10 min, and glucose released from the reaction was converted to quinoneimine using a commercial Glu Kit (Human, Germany). The absorbance of final product was determined at 503 nm, and percent inhibition was calculated using the aforementioned equation.

[2] = DPPH radical scavenging activity
Experimental: The antioxidant activity of the extract was evaluated through the free radical scavenging effect on 2,2′-diphenyl-1-picrylhydrazyl (DPPH) (Sigma) radical as previously reported (Yen & Hsieh [1997]) with slight modifications. 100 μL of 0.10 mM DPPH ethanolic solution was added to 20 μL of the sample with various concentrations. The mixture was thoroughly mixed and kept in the dark for 30 min. The absorbance was measured at 517 nm using a Sunrise microplate reader spectrophotometer.

[3] = target: T1, rat intestinal α-glucosidase (sucrase) (Rattus norvegicus, UniProt P23739); assay: rat intestinal α-glucosidase (sucrase) inhibition assay; type: biochemical; settings: rat intestine; compounds, Table 2
T1 construct: tissue Sigma Aldrich; host or cells: rat intestinal acetone powder
Experimental: as §1, with “Acarbose was obtained from Bayer Vitol Leverkusen, Germany.” left out
as §2

[4] = target: T2, α-Glucosidase (EC 3.2.1.20) from Saccharomyces cerevisiae (Baker's yeast) (Saccharomyces cerevisiae, UniProt P53341); assay: biochemical
T2 construct: purchased Sigma-Aldrich (St. Louis, MO)
Experimental: as §1, with “Acarbose was obtained from Bayer Vitol Leverkusen, Germany.” left out
The evaluation of the inhibitory activity of all compounds against yeast and rat intestinal (maltase and sucrase) α-glucosidases was applied from a previous procedure (Damsud et al. [2013]). The inhibitory effect against yeast α-glucosidase was determined using the protocol previously described. Briefly, 10 μL of sample was mixed with α-glucosidase (0.1 U/mL) in 1 mM phosphate buffer (pH 6.9) and incubated at 37 °C for 10 min. The reaction mixture was added with 1 mM p-nitrophenyl-α-D-glucopyranoside (PNPG, 50 μL) followed by additional 20 min incubation. p-Nitrophenoxide liberated from the reaction was quantified by a microplate reader (UV 405 nm) after the addition of 1 M Na2CO3 (100 μL). The percent inhibition was deduced using the following equation. (A0-A1)/A0×100 where A1 and A0 are absorbances with and without the sample, respectively.

yeast α-glucosidase = target: T3, yeast α-glucosidase (Saccharomyces cerevisiae, UniProt P53341); assay: enzyme kinetic study (Lineweaver–Burk plots) against yeast α-glucosidase; type: biochemical
T3 construct: purchased Sigma-Aldrich (St. Louis, MO)
Description: Figure 2S. Lineweaver-Burk plots for inhibitory activity of compound 2 against yeast α- […]
Figure 3S. Secondary plot of slope vs [I] for deduction of Ki of compound 2 against yeast α- […]
Figure 4S. Secondary plot of intercept vs [I] for deduction of K′i of compound 2 against yeast […]
Figure 5S. The hydrophobic analysis of compounds 1 (A) and 2 (B). The H-bond interactions were shown as green dotted lines and the hydrophobic interactions with surrounding amino acids are shown as arcs with spokes radiating towards the inhibitor. These schematic diagrams were generated using LigPlot+ software (Laskowski & Swindells, 2011).
Ahmad FBH, Moghaddam MG, Basri M, Abdul Rahman MB. 2010. Anticancer activity of 3-O-acylated betulinic acid derivatives obtained by enzymatic synthesis. Biosci […]

[5] = compounds, Table 2, read-out: IC50 Baker's yeast α-glucosidase
[6] = IC50 Baker's yeast α-glucosidase, compounds, Table 2

T2 sequence (P53341 whole entry): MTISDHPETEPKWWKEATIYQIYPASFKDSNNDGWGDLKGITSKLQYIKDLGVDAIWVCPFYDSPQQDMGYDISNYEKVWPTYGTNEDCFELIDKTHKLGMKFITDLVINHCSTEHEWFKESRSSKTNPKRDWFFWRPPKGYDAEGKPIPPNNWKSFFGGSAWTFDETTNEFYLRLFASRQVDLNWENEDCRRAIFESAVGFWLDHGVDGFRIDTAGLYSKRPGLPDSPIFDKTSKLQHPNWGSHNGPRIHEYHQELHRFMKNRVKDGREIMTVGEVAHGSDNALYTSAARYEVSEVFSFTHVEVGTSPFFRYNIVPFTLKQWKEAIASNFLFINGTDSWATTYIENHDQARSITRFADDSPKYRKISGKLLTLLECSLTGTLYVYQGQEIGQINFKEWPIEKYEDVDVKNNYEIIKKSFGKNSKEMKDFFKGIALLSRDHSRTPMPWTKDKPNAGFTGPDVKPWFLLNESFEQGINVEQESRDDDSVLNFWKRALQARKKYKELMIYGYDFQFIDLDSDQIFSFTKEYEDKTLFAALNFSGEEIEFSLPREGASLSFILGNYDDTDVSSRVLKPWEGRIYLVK
T1 sequence (P23739 1014-1841 limits assumed): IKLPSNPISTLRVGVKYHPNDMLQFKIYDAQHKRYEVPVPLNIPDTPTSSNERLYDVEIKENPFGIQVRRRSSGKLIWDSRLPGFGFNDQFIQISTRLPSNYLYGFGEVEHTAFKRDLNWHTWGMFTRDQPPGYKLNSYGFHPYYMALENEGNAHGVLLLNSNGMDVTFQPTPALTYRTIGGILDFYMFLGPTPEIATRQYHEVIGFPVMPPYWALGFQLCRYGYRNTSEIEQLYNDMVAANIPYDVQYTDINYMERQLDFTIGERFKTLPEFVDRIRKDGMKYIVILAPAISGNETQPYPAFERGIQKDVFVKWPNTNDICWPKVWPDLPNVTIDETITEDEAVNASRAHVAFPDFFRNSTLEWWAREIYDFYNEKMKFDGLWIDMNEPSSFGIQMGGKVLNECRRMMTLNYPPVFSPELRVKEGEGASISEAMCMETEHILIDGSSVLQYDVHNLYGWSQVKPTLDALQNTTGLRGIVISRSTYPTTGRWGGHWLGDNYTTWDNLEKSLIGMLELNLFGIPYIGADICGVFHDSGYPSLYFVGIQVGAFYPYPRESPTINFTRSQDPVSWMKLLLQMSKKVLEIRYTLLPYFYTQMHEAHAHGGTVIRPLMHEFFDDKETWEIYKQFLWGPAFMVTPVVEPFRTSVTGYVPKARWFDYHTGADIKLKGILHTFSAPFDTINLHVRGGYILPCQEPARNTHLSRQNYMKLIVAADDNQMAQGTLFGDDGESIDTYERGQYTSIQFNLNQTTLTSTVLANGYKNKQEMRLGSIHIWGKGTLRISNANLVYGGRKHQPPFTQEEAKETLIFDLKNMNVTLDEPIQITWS
T1 sequence (P23739 1-1013 partner limits assumed): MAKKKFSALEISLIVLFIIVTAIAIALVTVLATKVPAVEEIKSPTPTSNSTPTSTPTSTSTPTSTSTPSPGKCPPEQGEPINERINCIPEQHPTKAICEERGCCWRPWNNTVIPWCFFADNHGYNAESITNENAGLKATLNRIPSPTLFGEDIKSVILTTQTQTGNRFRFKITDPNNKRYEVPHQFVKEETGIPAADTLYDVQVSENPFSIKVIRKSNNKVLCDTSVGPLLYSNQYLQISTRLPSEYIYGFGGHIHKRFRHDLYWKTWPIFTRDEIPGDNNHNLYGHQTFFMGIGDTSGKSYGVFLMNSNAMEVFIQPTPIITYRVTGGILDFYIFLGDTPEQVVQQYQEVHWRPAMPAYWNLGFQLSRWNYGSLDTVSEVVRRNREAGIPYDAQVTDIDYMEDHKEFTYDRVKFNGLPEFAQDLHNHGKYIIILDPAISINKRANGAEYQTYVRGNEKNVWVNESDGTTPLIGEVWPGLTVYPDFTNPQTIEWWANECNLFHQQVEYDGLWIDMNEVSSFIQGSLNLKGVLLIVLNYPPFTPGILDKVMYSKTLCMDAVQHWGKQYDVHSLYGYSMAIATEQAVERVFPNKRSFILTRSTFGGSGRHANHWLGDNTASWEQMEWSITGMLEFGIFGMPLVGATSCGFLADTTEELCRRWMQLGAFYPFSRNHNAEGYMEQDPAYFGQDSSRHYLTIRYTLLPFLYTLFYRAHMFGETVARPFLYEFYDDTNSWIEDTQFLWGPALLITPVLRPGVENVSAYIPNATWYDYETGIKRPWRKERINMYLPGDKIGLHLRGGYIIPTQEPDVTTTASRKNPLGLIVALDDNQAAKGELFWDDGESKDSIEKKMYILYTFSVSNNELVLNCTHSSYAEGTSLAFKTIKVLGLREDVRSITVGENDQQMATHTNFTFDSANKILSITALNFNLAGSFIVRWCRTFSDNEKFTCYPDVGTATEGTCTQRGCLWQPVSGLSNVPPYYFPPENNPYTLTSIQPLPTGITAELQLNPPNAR
T3 sequence (P53341 whole entry): as the sequence (P53341 whole entry) above

SMILES | IC50 [1] [mM] | IC50 ([2]; compounds, Table 2) [mM] | IC50 [3] [mM] | IC50 [4, 5] [mM] | other results
C=C(C)[C@@H]1CC[C@]2(C(=O)N(C(=O)NC3CCCCC3)C3CCCCC3)CC[C@]3(C)[C@H](CC[C@@H]4[C@@]5(C)CC[C@H](OC(=O)CCCC)C(C)(C)[C@@H]5CC[C@]43C)[C@@H]12 [Compound 2k] | > 3 | > 10 | > 3 | > 0.6 | 
C=C(C)[C@@H]1CC[C@]2(C(=O)O)CC[C@]3(C)[C@H](CC[C@@H]4[C@@]5(C)CC[C@H](OC(=O)CC)C(C)(C)[C@@H]5CC[C@]43C)[C@@H]12 [Compound 2b] | > 3 | > 10 | > 3 | 0.0433 ± 0.00019 | 
C=C(C)[C@@H]1CC[C@]2(C(=O)O)CC[C@]3(C)[C@H](CC[C@@H]4[C@@]5(C)CC[C@H](OC(=O)c6ccccc6)C(C)(C)[C@@H]5CC[C@]43C)[C@@H]12 [Compound 2f] | > 3 | > 10 | > 3 | 0.0731 ± 0.00096 | 
COc1cc([C@H]2c3c(cc(OC)c(O)c3OC)C[C@@H](CO)[C@@H]2CO[C@@H]2O[C@H](CO)[C@@H](O)[C@H](O)[C@H]2O)cc(OC)c1O [Compound 4, (+)-lyoniresinol-3α-O-β-D-glucopyranoside] | 0.373 ± 0.00105 | 3.795 ± 0.00042 | 1.214 ± 0.00201 | > 0.6 | 
C[C@@H]1O[C@@H](O[C@H]2[C@H](Oc3c(-c4ccc(O)c(O)c4)oc4cc(O)cc(O)c4c3=O)O[C@@H](C)[C@H](O)[C@H]2O)[C@H](O)[C@H](O)[C@H]1O [Compound 6, horridin] | > 3 | 0.0428 ± 0.00083 | > 3 |  | IC50 [4, 6]: > 0.6 mM
O=C1O[C@H]([C@@H](O)CO)C(O)=C1O [Vitamin C, reference compound] |  | 0.158 ± 0.0019 |  |  | IC50 DPPH ([2]; fractions A-G, Table 1): 28 ± 1560 µg/mL (≈ 159 µM)
C=C(C)[C@@H]1CC[C@]2(C(=O)O)CC[C@]3(C)[C@H](CC[C@@H]4[C@@]5(C)CC[C@H](OC(=O)CCC)C(C)(C)[C@@H]5CC[C@]43C)[C@@H]12 [Compound 2c] | > 3 | > 10 | > 3 | 0.158 ± 0.00122 | 
C=C(C)[C@@H]1CC[C@]2(C(=O)O)CC[C@]3(C)[C@H](CC[C@@H]4[C@@]5(C)CC[C@H](OC(=O)CCCCC)C(C)(C)[C@@H]5CC[C@]43C)[C@@H]12 [Compound 2e] | > 3 | > 10 | > 3 | 0.0721 ± 0.00154 | 
C=C(C)[C@@H]1CC[C@]2(C(=O)N(C(=O)NC3CCCCC3)C3CCCCC3)CC[C@]3(C)[C@H](CC[C@@H]4[C@@]5(C)CC[C@H](O)C(C)(C)[C@@H]5CC[C@]43C)[C@@H]12 [Compound 2g] | > 3 | > 10 | > 3 | 0.23 ± 0.00011 | melting point: 193 to 194 °C
Cc1cc(C(C)(C)C)c(O)c(C(C)(C)C)c1 [BHT, reference compound] |  | 0.328 ± 0.00056 |  |  | IC50 DPPH ([2]; fractions A-G, Table 1): 72 ± 350 µg/mL (≈ 327 µM)
C=C(C)[C@@H]1CC[C@]2(C(=O)O)CC[C@]3(C)[C@H](CC[C@@H]4[C@@]5(C)CC[C@H](O)C(C)(C)[C@@H]5CC[C@]43C)[C@@H]12 [Compound 2, betunilic acid] | > 3 | > 10 | > 3 | 0.0163 ± 0.00203 | mode of inhibition (yeast α-glucosidase; Lineweaver–Burk plots, 0.063 and 1.3 mM of inhibitor): mixed mode inhibitor; K'i (uncompetitive component, from intercept plot) (yeast α-glucosidase; secondary plot of intercept vs [I], Figure 4S): 0.019 mM; IC50 DPPH ([2]; compounds, Table 2): no activity; IC50 ([4]; restated in mM in docking section, read-out: experimental IC50 yeast α-glucosidase): 0.016 mM
C=C(C)[C@@H]1CC[C@]2(C(=O)N(C(=O)NC3CCCCC3)C3CCCCC3)CC[C@]3(C)[C@H](CC[C@@H]4[C@@]5(C)CC[C@H](OC(=O)CC)C(C)(C)[C@@H]5CC[C@]43C)[C@@H]12 [Compound 2i] | > 3 | > 10 | > 3 | 0.368 ± 0.00164 | 
C=C(C)[C@@H]1CC[C@]2(C(=O)O)CC[C@]3(C)[C@H](CC[C@@H]4[C@@]5(C)CC[C@H](OC(C)=O)C(C)(C)[C@@H]5CC[C@]43C)[C@@H]12 [Compound 2a] | > 3 | > 10 | > 3 | 0.0281 ± 0.00076 | 
C=C(C)[C@@H]1CC[C@]2(C(=O)N(C(=O)NC3CCCCC3)C3CCCCC3)CC[C@]3(C)[C@H](CC[C@@H]4[C@@]5(C)CC[C@H](OC(=O)CCC)C(C)(C)[C@@H]5CC[C@]43C)[C@@H]12 [Compound 2j] | > 3 | > 10 | > 3 | > 0.6 | 
C=C(C)[C@@H]1CC[C@]2(C(=O)N(C(=O)NC3CCCCC3)C3CCCCC3)CC[C@]3(C)[C@H](CC[C@@H]4[C@@]5(C)CC[C@H](OC(C)=O)C(C)(C)[C@@H]5CC[C@]43C)[C@@H]12 [Compound 2h] | > 3 | > 10 | > 3 | 0.281 ± 0.00089 | 
C=C(C)[C@@H]1CC[C@]2(C(=O)N(C(=O)NC3CCCCC3)C3CCCCC3)CC[C@]3(C)[C@H](CC[C@@H]4[C@@]5(C)CC[C@H](OC(=O)CCCCC)C(C)(C)[C@@H]5CC[C@]43C)[C@@H]12 [Compound 2l] | > 3 | > 10 | > 3 | > 0.6 | 
C[C@H]1O[C@H](O[C@H]2[C@H](O)[C@@H](O)[C@@H](O[C@H]3[C@H](O)[C@@H](O)C(O)O[C@@H]3CO)O[C@@H]2CO)[C@H](O)[C@@H](O)[C@@H]1N[C@H]1C=C(CO)[C@@H](O)[C@H](O)[C@H]1O (stereo partly drawn) [Acarbose, reference compound] | 0.0079 ± 0.00094 |  |  |  | IC50 Maltase ([1]; fractions A-G, Table 1): 5.1 ± 940 µg/mL (≈ 7.9 µM)
C=C(C)[C@@H]1CC[C@]2(C(=O)O)CC[C@]3(C)[C@H](CC[C@@H]4[C@@]5(C)CC[C@H](OC(=O)CCCC)C(C)(C)[C@@H]5CC[C@]43C)[C@@H]12 [Compound 2d] | > 3 | > 10 | > 3 | 0.269 ± 0.00322 | 
C=C(C)[C@@H]1CC[C@]2(C)CC[C@]3(C)[C@H](CC[C@@H]4[C@@]5(C)CC[C@H](O)C(C)(C)[C@@H]5CC[C@]43C)[C@@H]12 [Compound 1, lupeol] | > 3 | > 10 | > 3 |  | IC50 DPPH ([2]; compounds, Table 2): no activity; IC50 [4, 6]: 0.0372 ± 0.00022 mM; IC50 ([4]; experimental IC50 yeast α-glucosidase, restated in mM in docking section): 0.037 mM
C[C@@H]1O[C@@H](O[C@H]2[C@H](Oc3c(-c4ccc(O)cc4)oc4cc(O)cc(O)c4c3=O)O[C@@H](C)[C@H](O)[C@H]2O)[C@H](O)[C@H](O)[C@H]1O [Compound 5, kaempferol-3-O-α-L-rhamnopyranosyl-(1→2)-α-L-rhamnopyrano side] | > 3 | 6.019 ± 0.00136 | > 3 |  | IC50 [4, 6]: > 0.6 mM
